Assay results published in US20070026090A1, “Treatment and prevention of inflammatory disease and mitochondrial dysfunction with high dose selenium” (priority 2003, published 2007).
Where two headings read alike, the source gives them in different places.

How the values were obtained:
lipid peroxidation (MDA) = experiment: Lipid peroxidation: MDA levels in colon tissue (HPLC); assay type: in vivo, rat; conditions: colitis-induced and uninduced rats, selenium supplemented group; data not presented
Experimental: Lipid peroxidation—MDA levels: MDA levels in the colon tissue were determined as an indicator of lipid peroxidation using HPLC methodology (Valacchi et al., 2000). Briefly, tissue sections (100 mg) were homogenized in 1% Triton X 100 PBS. The suspended tissue was diluted 1:1 with 1% SDS solution and incubated with 250 ul TBA reagent (0.375 g TBA/100 ml) and 200 ul phosphoric acid (1.22 M) for 30 min at 100° C. Methanol ([…]) was added for protein precipitation and NaOH (20 ml, 1N) added for pH neutralization. After centrifugation, 100 ul clear supernatant was injected into a HPLC system, using a C185 m, 250 mm^a 4.6 mm internal diameter, reversed phase column (Alltech, Deerfield, Ill., USA). The mobile phase consisted of 60% methanol and 40% 50 mM NaH2PO4, pH 5.5. The flow rate was 0.9 ml/min and the detector was set to 532 nm. HPLC colarray ESA was used.

J774.2 macrophages [1] = experiment: Cell viability (PI exclusion, flow cytometry); assay type: cell-based, murine; conditions: 10 μM, activated cells
Experimental: (§1) Experiments were performed on cells at 60% confluence.
(§2) Determination of cell viability: Cell-membrane integrity was detected by flow cytometer (FACSort, Becton Dickenson and Co., San Jose, Calif. USA) as a measurement of cell viability. For this assay, the nonpermeant DNA-intercalating dye propidium iodide (PI), which is excluded by viable cells, was used. Fluorescence settings were excitation at 488 nm and emission at 575 nm. Data were collected from at least 10,000 cells.

[2] = Cell viability (PI exclusion, flow cytometry); assay type: cell-based, murine; conditions: mouse, J774.2 macrophages, 10 μM, 24 hour exposure
Experimental: as §1, §2

J774.2 macrophages [3] = experiment: Type of cell death (annexin V-FITC / PI); assay type: cell-based, murine; conditions: 10 μM, 24 hours; annexin V-FITC and PI
Experimental: as §1
Determination of type of cell death: Type of cell death was determined by dual staining with annexin V-FITC (Santa Cruz Biotechnology, Santa Cruz Calif., USA) and PI, and flow cytometric analysis. Cells were treated with 10 μM selenite for 24 h then collected and re-suspended in binding buffer (10 mM HEPES/NaOH, pH 7.4, 140 mM NaCl, 2.5 mM CaCl2). 2.5 μg/ml annexin V-FITC was added and cells were incubated for 30 min at room temperature, then 0.25 μg/ml PI was added and samples were analyzed by flow cytometry (FACSort, Becton Dickenson and. Co., San Jose, Calif. USA).

[4] = system: glutathione peroxidase (GPx); experiment: GPx activity in macrophage cell extract; assay type: cell-based, murine; conditions: 24 h; range 0.5-30 μM (FIG. 8B)
Experimental: Cell culture: Murine J774.2 macrophages (kindly provided by Prof. Dov Zipori from the Weizmann Institute of Science) were grown in RPMI medium supplemented with 10% (w/v) fetal calf serum, penicillin (100 U/ml), streptomycin (100 μg/ml) and 1× glutamine at 37° C. in a humidified atmosphere consisting of 95% air and 5% CO2. Experiments were performed on cells at 60% confluence.
GPx activity: GPx activity was determined by following the rate of NADPH oxidation at 340 nm in the presence of the substrates: 3 mM glutathione (GSH), 1.2 U glutathione reductase (GR) and 1.5% H2O2, using a microfluorometer plate reader (GENios, Tecan, Austria). The reaction contained 500 μl Tris reaction buffer (100 mM Tris Hcl, 300 mM Kcl, 5 mM EDTA, 1 mM NaN3, pH 7.0), substrates and 100 μl cell extract. Macrophages were treated with selenium for 24 h. Wells were washed twice with PBS, cells permeabilized, and scraped using 200 μl 0.2% Triton X-100. The reaction was recorded every minute for 25 minutes. Slopes were calculated and the results were adjusted according to the protein amount calculated with the Bradford reagent.

[5] = in vivo; cited from earlier work
cytochrome c = experiment: Cytochrome c protein in colon tissue (Western blot); assay type: in vivo, rat
Excerpt: Western blotting—analysis of Cytochrome c: Colon tissue samples were boiled and kept in sample buffer (Sigma-Aldrich Corp., St Louis, Mo.) immediately following isolation. For electrophoretic separation and immunodetection, the samples were reboiled, and subjected to SDS-PAGE followed by Western blot analysis. Briefly, separated proteins were transferred electrophoretically from the gel to a nitrocellulose membrane (Amersham International plc, Buckinghamshire, England). The membrane was blocked in TBS (0.15 M NaCl/10 mM Tris/HCl [pH7.4]) containing 5% (v/v) skim milk (Blotto), then incubated overnight with the primary antibody at 4° C. (diluted 1/1000 in Blotto). Following six washes in TBST (TBS containing 0.05% v/v Tween 20), the membrane was incubated for 2 hours at room temperature with the secondary antibody (diluted 1/1000 in Blotto). Immunoreactive bands were detected with ECL western blotting detection reagents and developed on film (Shilo et al., 2003). Separated proteins were transferred electrophoretically from the gel to a nitrocellulose membrane (Amersham International plc, Buckinghamshire, England). […] Immunoreactive bands were visualized by detection with ECL Western blotting detection reagents (ECL, Amersham Biosciences, Uppsala, Sweden) followed by exposure of film and quantitation by densitometry (Shilo et al., 2003).

For `[Se]` [selenium], which “colon tissue lipid peroxidation (MDA content)” value (lipid peroxidation (MDA)) is on record?
Its value is “no changes”.

What about the “cell survival, simultaneous selenium exposure and activation” value (J774.2 macrophages [1]; from 75% without selenium (FIG. 14A)) of the same compound?
Its value is 35%.

What about the “cell survival, selenium following activation by 24 hours” value (J774.2 macrophages [1]; from 75% without selenium (FIG. 14B)) of the same compound?
Its value is 55%.

What about the cytotoxicity at 24 h, 10 μM ([2]; LPS + INFγ activated (FIG. 14A column c), read-out: decrease in viability, activated cells) of the same compound?
Its cytotoxicity at 24 h, 10 μM is no more than 50%.

And the cytotoxicity at 24 h, 10 μM ([2]; not activated, read-out: decrease in viability, control cells)?
Its cytotoxicity at 24 h, 10 μM is 60%.

And the “character of cell death” value (J774.2 macrophages [3])?
Its value is “cell death with necrotic characteristics”.

What about the “concentration of maximum stimulation of GPx activity” value [4] of the same compound?
The value was 0.5 µM.

And the “carcinogenesis in male mice” value [5]?
The value was “unaffected”.

And the “inflammation-associated alterations of cytochrome c protein” value (cytochrome c; 24 h after TNBS, supplemented (FIG. 7B lane 4 vs lane 3))?
The value was “completely prevented”.

And the “characteristics of cytochrome c protein, healthy uninduced rats” value (cytochrome c; FIG. 7B lane 1 vs lane 2)?
Its value is “no effect”.
